What was measured:
Assay in all cases: relative viability (nuclei count vs DMSO), 5 days (fraction); higher = more cells survive
[1] = compound: CC1=NN=C(O1)C2=NN=C(C=C2)N3CCC(CC3)OC4=C(C=CC(=C4)F)Cl + COc1cccc2cc(-c3nc([C@H]4CC[C@H](C(=O)O)CC4)n4ncnc(N)c34)[nH]c12 [OSI-027] (partner 0.5 µM)
Outline: (§1)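 Medians of duplicate plates are given as relative viability. That measure is the nuclei count in treated wells divided by the count in vehicle wells. Counts were taken on 4× images of lung cancer cell lines in 1536-well plates, 5 days after pin-tool dosing the day after seeding with one drug alone or a fixed anchor-drug dose plus five library-drug doses (not always all listed) in √10 steps.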

[2] = compound: CC1=NN=C(O1)C2=NN=C(C=C2)N3CCC(CC3)OC4=C(C=CC(=C4)F)Cl + O=C(CCCCCCC(=O)Nc1ccccc1)NO [Vorinostat] (partner 1 µM)
Outline: as §1

[3] = compound: CC1=NN=C(O1)C2=NN=C(C=C2)N3CCC(CC3)OC4=C(C=CC(=C4)F)Cl + C[C@]1(O)C[C@@H](c2nc(-c3ccc4ccc(-c5ccccc5)nc4c3)c3c(N)nccn32)C1 [Linsitinib] (partner 1 µM)
Outline: as §1

[4] = compound: CC1=NN=C(O1)C2=NN=C(C=C2)N3CCC(CC3)OC4=C(C=CC(=C4)F)Cl + Cc1nc(NC(=O)N2CCC[C@H]2C(N)=O)sc1-c1ccnc(C(C)(C)C(F)(F)F)c1 [Alpelisib] (partner 2 µM)
Outline: as §1

| Cell Line | relative viability ([1]; first compound 0.253 µM) | relative viability ([1]; first compound 0.8 µM) | relative viability ([1]; first compound 2.53 µM) | relative viability ([1]; first compound 8 µM) | relative viability ([2]; first compound 0.253 µM) | relative viability ([2]; first compound 0.8 µM) | relative viability ([2]; first compound 2.53 µM) | relative viability ([2]; first compound 8 µM) | relative viability ([3]; first compound 0.253 µM) | relative viability ([3]; first compound 0.8 µM) | relative viability ([3]; first compound 2.53 µM) | relative viability ([3]; first compound 8 µM) | relative viability ([4]; first compound 0.253 µM) | relative viability ([4]; first compound 0.8 µM) | relative viability ([4]; first compound 2.53 µM) | relative viability ([4]; first compound 8 µM) |
| --- | --- | --- | --- | --- | --- | --- | --- | --- | --- | --- | --- | --- | --- | --- | --- | --- |
| NCI-H522 | 0.725 | 0.659 | 0.699 | 0.693 | 0.958 | 0.925 | 0.964 | 0.805 |  |  |  |  |  |  |  |  |
| HCC-15 | 0.605 | 0.573 | 0.532 | 0.522 | 0.534 | 0.431 | 0.511 | 0.554 | 0.608 | 0.58 | 0.553 | 0.578 | 0.661 | 0.578 | 0.582 | 0.584 |
| A-427 | 0.498 |  | 0.428 | 0.404 | 0.796 | 0.689 | 0.791 | 0.703 | 0.947 |  | 0.907 | 0.887 | 1.05 |  | 1.02 | 0.882 |
| NCI-H3122 | 0.359 | 0.384 | 0.418 | 0.348 | 0.484 | 0.484 | 0.443 | 0.345 | 0.729 | 0.551 | 0.749 | 0.517 | 0.632 | 0.642 | 0.702 | 0.618 |
| NCI-H1915 | 0.596 | 0.349 | 0.553 | 0.421 | 0.457 | 0.219 | 0.401 | 0.325 | 0.582 | 0.51 | 0.45 | 0.376 | 0.506 | 0.391 | 0.437 | 0.31 |
| NCI-H1355 | 0.343 | 0.38 | 0.386 | 0.331 | 0.405 | 0.478 | 0.625 | 0.558 |  |  | 0.806 | 0.66 |  |  | 0.78 | 0.734 |
| NCI-H2023 | 0.33 | 0.35 | 0.35 | 0.314 | 0.357 | 0.268 | 0.309 | 0.322 | 0.478 | 0.433 | 0.557 | 0.393 | 0.499 | 0.444 | 0.43 | 0.361 |
| NCI-H1755 | 0.609 | 0.625 | 0.669 | 0.597 | 0.538 | 0.553 | 0.611 | 0.538 | 0.661 | 0.754 | 0.728 | 0.683 | 0.713 | 0.697 | 0.709 | 0.671 |
| HCC-366 | 0.32 | 0.399 | 0.393 | 0.407 | 0.0995 | 0.112 | 0.127 | 0.0801 | 0.225 | 0.291 | 0.386 | 0.247 | 0.205 | 0.212 | 0.284 | 0.323 |
| SK-MES-1 | 0.558 | 0.583 | 0.601 | 0.487 | 0.781 | 0.765 | 0.766 | 0.702 | 0.848 | 0.8 | 0.828 | 0.815 | 0.786 | 0.953 | 0.859 | 0.871 |
| NCI-H596 | 0.565 | 0.572 | 0.734 | 0.698 | 0.474 | 0.564 | 0.6 | 0.567 |  | 0.953 | 1.01 | 0.933 |  | 0.535 | 0.444 | 0.391 |
| RERF-LC-KJ | 0.524 | 0.531 | 0.622 | 0.479 | 0.347 | 0.467 | 0.453 | 0.493 | 0.523 | 0.568 | 0.6 | 0.632 | 0.765 | 0.695 | 0.839 | 0.781 |
| LOU-NH91 | 0.693 | 0.645 | 0.706 | 0.69 |  | 0.853 | 0.807 | 0.922 |  | 0.86 | 0.862 | 0.997 |  | 0.649 | 0.713 | 0.726 |
| NCI-H1623 | 0.36 | 0.457 | 0.392 | 0.429 |  |  |  |  |  |  |  |  |  |  |  |  |
| Calu-6 |  |  |  |  |  |  |  |  | 0.635 | 0.612 | 0.691 | 0.656 | 0.808 | 0.864 | 0.895 | 0.846 |
| LC-2-ad | 0.689 | 0.678 | 0.632 | 0.682 | 0.321 | 0.254 | 0.322 | 0.284 | 0.427 | 0.376 | 0.381 | 0.328 | 0.429 | 0.371 | 0.382 | 0.341 |
| CAL-12T | 0.54 | 0.705 | 0.668 | 0.513 | 0.524 | 0.542 | 0.566 | 0.368 | 0.953 | 0.78 | 0.754 | 0.869 | 1.14 | 0.871 | 0.989 | 0.877 |
| NCI-H1650 |  | 0.472 | 0.626 | 0.615 | 0.323 | 0.289 | 0.37 | 0.333 |  |  |  |  |  |  |  |  |
| NCI-H1703 |  |  |  |  |  |  |  |  | 0.714 | 0.686 | 0.803 | 0.737 | 0.313 | 0.388 | 0.337 | 0.395 |
| BEN | 0.309 | 0.28 | 0.309 | 0.318 | 0.566 | 0.536 | 0.551 | 0.538 | 0.784 | 0.879 | 0.919 | 0.75 | 0.767 | 0.899 | 1.05 | 0.901 |
| EMC-BAC-2 | 0.441 | 0.382 | 0.354 | 0.417 | 0.512 | 0.426 | 0.446 | 0.239 | 0.742 | 0.755 | 0.77 | 0.637 | 0.69 | 0.649 | 0.695 | 0.581 |
| LXF-289 | 0.76 | 0.548 | 0.741 | 0.687 | 0.637 | 0.418 | 0.586 | 0.463 | 0.724 | 0.712 | 0.688 | 0.603 | 0.783 | 0.789 | 0.744 | 0.67 |
| ABC-1 | 0.244 | 0.326 | 0.411 | 0.47 | 0.542 | 0.487 | 0.402 | 0.525 | 0.627 | 0.465 | 0.575 | 0.451 | 0.729 | 0.567 | 0.568 | 0.642 |
| NCI-H2170 | 0.486 | 0.485 | 0.654 | 0.489 | 0.449 | 0.366 | 0.473 | 0.362 |  |  |  |  | 0.646 | 0.593 | 0.626 | 0.574 |

From the supplement of paper PMC10307832
